Values quoted from earlier work in patent US20100137843A1, “Delivery devices for modulating inflammation” (Searete LLC, a limited liability corporation of the State …, priority 2008, published 2010).
Blank lines part the entries; values can stand above or below the compound they belong to.

Tests used:
[1] = single agent, 400 mg infused over one hour
Src family kinase = conditions: also its dependent cellular responses
proteasome = conditions: cultured breast cancer cells; copper-bound
aldehyde dehydrogenase = conditions: without toxicity
Toll-like receptor 4 = Toll-like receptor 4 (Homo sapiens, UniProt O00206)
Epha1 = conditions: at nanomolar concentrations

Toll-like receptor 4, sequence (O00206 24-839, species assumed): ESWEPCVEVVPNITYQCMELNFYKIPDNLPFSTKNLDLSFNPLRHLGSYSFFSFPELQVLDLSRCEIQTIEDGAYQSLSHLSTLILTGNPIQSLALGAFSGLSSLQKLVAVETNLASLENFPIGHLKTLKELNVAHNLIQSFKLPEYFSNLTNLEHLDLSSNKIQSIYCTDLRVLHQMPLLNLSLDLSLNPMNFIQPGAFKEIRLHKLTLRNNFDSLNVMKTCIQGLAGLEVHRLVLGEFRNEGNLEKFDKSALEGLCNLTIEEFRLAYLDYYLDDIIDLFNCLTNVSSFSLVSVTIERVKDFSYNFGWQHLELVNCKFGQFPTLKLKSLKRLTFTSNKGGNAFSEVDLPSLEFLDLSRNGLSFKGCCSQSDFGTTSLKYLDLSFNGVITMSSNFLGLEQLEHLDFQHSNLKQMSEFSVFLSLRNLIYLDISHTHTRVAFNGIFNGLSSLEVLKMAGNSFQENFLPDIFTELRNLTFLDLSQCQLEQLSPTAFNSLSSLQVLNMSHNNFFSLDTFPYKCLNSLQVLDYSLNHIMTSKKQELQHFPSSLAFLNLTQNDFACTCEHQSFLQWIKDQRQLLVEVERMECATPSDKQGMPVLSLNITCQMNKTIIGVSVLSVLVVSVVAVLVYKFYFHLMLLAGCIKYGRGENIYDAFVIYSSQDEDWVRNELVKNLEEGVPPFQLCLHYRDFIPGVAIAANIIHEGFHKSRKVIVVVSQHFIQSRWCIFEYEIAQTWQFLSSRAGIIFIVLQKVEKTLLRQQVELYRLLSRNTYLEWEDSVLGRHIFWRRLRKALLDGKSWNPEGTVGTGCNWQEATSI

Structure (SMILES): CCN(CC)CCCC(C)Nc1ccnc2cc(Cl)ccc12.O=P(O)(O)O.O=P(O)(O)O (stereo not drawn) [Chloroquine phosphate, 7-chloro-4-[[4-(diethylamino)-1-methylbutyl]amino]quinoline phosphate (1:2)]
tolerability of intravenous infusion [1]: without complication

inhibition of CpG-induced Src family kinase activation (Src family kinase): does not inhibit
Structure (SMILES): CCN(CC)CCCC(C)Nc1ccnc2cc(Cl)ccc12 (stereo not drawn) [Chloroquine]

Structure (SMILES): CCN(CC)C(=S)SSC(=S)N(CC)CC [Disulfiram, 1-(diethylthiocarbamoyldisulfanyl)-N,N-diethyl-methanethioamide]
proteasomal activity (proteasome): inhibits proteasomal activity | inhibition of aldehyde dehydrogenase (aldehyde dehydrogenase): inhibits

inhibition of Toll-like receptor 4 (Toll-like receptor 4): inhibitor
Structure (SMILES): Cl.Cl.Nc1ccccc1Oc1ccc2c(N)nsc2c1 [Example M62812, 3-amino-6-(2-aminophenoxy)-1,2-benzisothiazole dihydrochloride]

Structure (SMILES): Cc1nc(Nc2ncc(C(=O)Nc3c(C)cccc3Cl)s2)cc(N2CCN(CCO)CC2)n1.O [dasatinib, N-(2-chloro-6-methylphenyl)-2-[[6-[4-(2-hydroxyethyl)-1-piperazinyl]-2-methyl-4-pyrimidinyl]amino]-5-thiazolecarboxamide, monohydrate]
inhibition of Epha1 (Epha1): inhibits
